Test results published in ChEMBL document CHEMBL5727197, “Bicyclic urea, thiourea, guanidine and cyanoguanidine compounds useful for the treatment of pain” (2019).

Target: High affinity nerve growth factor receptor (Homo sapiens, UniProt P04629)
Assay: Kinase Binding Assay: TrkA binding activity was determined in a TrkA LanthaScreen™ Eu Kinase Binding Assay. 5 nM His-tagged recombinant human TrkA (6HIS tagged cytoplasmic domain from Invitrogen, Catalog No. PV3144) was incubated with 4 nM Alexa-Fluor® Tracer 236 (Invitrogen Cat. No. PV5592), 2 nM biotinylated anti-His (Invitrogen Cat. No. PV6090), and 2 nM europium-labeled Streptavidin (Invitrogen Cat. No. PV5899), in buffer (25 mM MOPS, pH 7.5, 5 mM MgCl2, 0.005% Triton X-100). Three fold serial dilutions of compounds of the invention in DMSO were added to a final percentage of 2% DMSO. After 60-minute incubation at 22° C., the reaction was measured using the EnVision mutlimode plate reader (PerkinElmer) via TR-FRET dual wavelength detection at […]. The percent of control was calculated using a ratiometric emission factor.

Sequence of High affinity nerve growth factor receptor (P04629 whole entry, the tested form may be a part): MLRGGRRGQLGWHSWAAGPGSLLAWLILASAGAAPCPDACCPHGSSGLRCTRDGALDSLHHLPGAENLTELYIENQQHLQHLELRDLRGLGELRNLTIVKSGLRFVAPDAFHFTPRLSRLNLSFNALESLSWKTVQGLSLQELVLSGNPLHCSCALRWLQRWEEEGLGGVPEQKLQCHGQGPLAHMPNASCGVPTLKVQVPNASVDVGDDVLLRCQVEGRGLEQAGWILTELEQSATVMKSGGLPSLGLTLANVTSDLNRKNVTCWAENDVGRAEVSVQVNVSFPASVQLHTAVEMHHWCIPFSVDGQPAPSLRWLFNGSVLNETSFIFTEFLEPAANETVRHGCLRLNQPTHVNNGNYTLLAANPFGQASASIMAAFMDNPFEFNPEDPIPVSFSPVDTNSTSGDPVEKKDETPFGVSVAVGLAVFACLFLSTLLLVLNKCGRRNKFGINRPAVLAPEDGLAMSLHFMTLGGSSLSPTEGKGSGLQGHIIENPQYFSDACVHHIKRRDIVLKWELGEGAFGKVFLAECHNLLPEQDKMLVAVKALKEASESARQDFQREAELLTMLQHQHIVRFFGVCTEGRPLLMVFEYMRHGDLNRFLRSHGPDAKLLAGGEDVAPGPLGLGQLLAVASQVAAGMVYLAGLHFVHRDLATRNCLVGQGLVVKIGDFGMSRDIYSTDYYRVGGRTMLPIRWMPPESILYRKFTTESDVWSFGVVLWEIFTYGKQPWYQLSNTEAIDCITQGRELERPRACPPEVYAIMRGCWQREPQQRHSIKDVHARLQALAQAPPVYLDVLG

| IC50 [nM] | Compound |
| --- | --- |
| < 100 | CC(C)(C)OC(=O)N1CCO[C@@H](COc2nn(-c3ccccc3)c(NC(=O)N[C@@H]3c4ccccc4C4(CC4)[C@H]3O)c2Cl)C1 |
| < 100 | CC1(C)C[C@@H](O)[C@H](NC(=O)Nc2c3c(nn2-c2ccccc2)COC3)c2ccccc21 (relative stereo) |
| < 100 | Cc1c(-c2ccc(=O)n(C)c2)nn(-c2ccccc2)c1NC(=O)NC1CN(CC(F)(F)F)Cc2ccccc21 (stereo not drawn) |
